This test concerns the target recombinant human SAE enzyme (Homo sapiens (Human), UniProt Q9UBT2). The test is described as follows: SAE HTRF enzyme assay. In kind it is biochemical. To be noted: for Percent Inhibition: SAE inhibition at compound concentration 0.111 μM; for IC50: SAE inhibition, class symbols, legend in nM. An outline of the steps:
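This HTRF format monitors Sumo-Flag–Ubc9-GST thioester formation catalysed by 0.11 nM human SAE with 0.5 μM ATP over 105 min at 24° C. Inhibition is expressed at a single concentration or as IC50.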
(TR-FRET usually uses a lanthanide donor and a delayed reading to cut background.)

Chain of recombinant human SAE enzyme (Q9UBT2 whole entry): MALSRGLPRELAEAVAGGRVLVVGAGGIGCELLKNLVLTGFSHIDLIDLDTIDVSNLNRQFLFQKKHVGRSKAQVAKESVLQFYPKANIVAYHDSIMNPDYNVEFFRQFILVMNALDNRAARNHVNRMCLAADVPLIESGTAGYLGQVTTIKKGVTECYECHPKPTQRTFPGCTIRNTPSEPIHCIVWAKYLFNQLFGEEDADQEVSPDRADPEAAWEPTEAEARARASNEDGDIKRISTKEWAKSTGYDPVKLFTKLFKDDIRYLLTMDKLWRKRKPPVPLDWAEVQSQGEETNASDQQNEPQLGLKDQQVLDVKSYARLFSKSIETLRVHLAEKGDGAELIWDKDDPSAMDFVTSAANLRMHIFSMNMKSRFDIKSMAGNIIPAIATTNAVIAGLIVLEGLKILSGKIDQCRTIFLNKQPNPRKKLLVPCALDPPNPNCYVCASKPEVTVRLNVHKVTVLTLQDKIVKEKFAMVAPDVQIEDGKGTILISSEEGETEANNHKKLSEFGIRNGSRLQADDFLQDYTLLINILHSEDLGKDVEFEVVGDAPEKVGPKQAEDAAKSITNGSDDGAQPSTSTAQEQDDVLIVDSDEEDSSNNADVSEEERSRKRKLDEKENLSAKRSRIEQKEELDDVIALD
Chain of recombinant human SAE enzyme (Q9UBE0 whole entry partner): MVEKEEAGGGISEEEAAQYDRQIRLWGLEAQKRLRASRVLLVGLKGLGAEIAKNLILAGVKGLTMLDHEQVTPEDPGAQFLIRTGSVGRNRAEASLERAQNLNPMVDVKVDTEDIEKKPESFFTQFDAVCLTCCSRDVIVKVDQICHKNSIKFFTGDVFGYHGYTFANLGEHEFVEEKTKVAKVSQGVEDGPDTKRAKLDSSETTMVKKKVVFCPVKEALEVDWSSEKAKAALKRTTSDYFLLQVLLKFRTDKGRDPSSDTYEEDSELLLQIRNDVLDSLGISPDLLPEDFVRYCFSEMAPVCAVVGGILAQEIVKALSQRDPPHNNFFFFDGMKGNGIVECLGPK

As to `NS(=O)(=O)OC[C@H]1C[C@@H](Nc2ncncc2C(=O)c2cc([C@@H]3OCCCc4ccc(Cl)cc43)cs2)C[C@@H]1O` (mixture of isomers) [I-314, [(1R,2S,4R)-4-{[5-({4-[(1R)-8-chloro-1,3,4,5-tetrahydro-2-benzoxepin-1-yl]-2-thienyl}carbonyl)pyrimidin-4-yl]amino}-2-hydroxycyclopentyl]methyl sulfamate and [(1R,2S,4R)-4-{[5-({4-[(1S)-8-chloro-1,3,4,5-tetrahydro-2-benzoxepin-1-yl]-2-thienyl}carbonyl)pyrimidin-4-yl]amino}-2-hydroxycyclopentyl]methyl sulfamate], the “Percent Inhibition” value came out at 95% and the 50% inhibitory concentration (IC50) was less than 10 nM.

As to `Cc1sc(C(=O)c2cncnc2N[C@@H]2C[C@H](COS(N)(=O)=O)[C@@H](O)C2)cc1[C@@H]1OCCc2sc(C(F)(F)F)nc21` (mixture of isomers) [I-315, [(1R,2S,4R)-2-hydroxy-4-{[5-({5-methyl-4-[(4S)-2-(trifluoromethyl)-6,7-dihydro-4H-pyrano[3,4-d][1,3]thiazol-4-yl]-2-thienyl}carbonyl)pyrimidin-4-yl]amino}cyclopentyl]methyl sulfamate and [(1R,2S,4R)-2-hydroxy-4-{[5-({5-methyl-4-[(4R)-2-(trifluoromethyl)-6,7-dihydro-4H-pyrano[3,4-d][1,3]thiazol-4-yl]-2-thienyl}carbonyl)pyrimidin-4-yl]amino}cyclopentyl]methyl sulfamate], the “Percent Inhibition” value came to 97% and the IC50 was less than 10 nM.

Take `Cc1sc(C(=O)c2cncnc2N[C@@H]2C[C@H](COS(N)(=O)=O)[C@@H](O)C2)cc1[C@@H]1OCCc2cnc(Cl)cc21` (mixture of isomers) [I-316, [(1R,2S,4R)-4-{[5-({4-[(1R)-7-chloro-3,4-dihydro-1H-pyrano[4,3-c]pyridin-1-yl]-5-methyl-2-thienyl}carbonyl)pyrimidin-4-yl]amino}-2-hydroxycyclopentyl]methyl sulfamate and [(1R,2S,4R)-4-{[5-({4-[(1S)-7-chloro-3,4-dihydro-1H-pyrano[4,3-c]pyridin-1-yl]-5-methyl-2-thienyl}carbonyl)pyrimidin-4-yl]amino}-2-hydroxycyclopentyl]methyl sulfamate]: the “Percent Inhibition” value is recorded as 94% and the IC50 was less than 10 nM.

On to `C[C@@]1(c2csc(C(=O)c3cncnc3N[C@@H]3C[C@H](COS(N)(=O)=O)[C@@H](O)C3)c2)OCCc2ccc(Cl)cc21` (mixture of isomers) [I-317, [(1R,2S,4R)-4-{[5-({4-[(1R)-7-chloro-1-methyl-3,4-dihydro-1H-isochromen-1-yl]-2-thienyl}carbonyl)pyrimidin-4-yl]amino}-2-hydroxycyclopentyl]methyl sulfamate and [(1R,2S,4R)-4-{[5-({4-[(1S)-7-chloro-1-methyl-3,4-dihydro-1H-isochromen-1-yl]-2-thienyl}carbonyl)pyrimidin-4-yl]amino}-2-hydroxycyclopentyl]methyl sulfamate], for which the “Percent Inhibition” value stood at 97% and the IC50 was less than 10 nM.

Consider `C[C@@]1(c2csc(C(=O)c3cncnc3N[C@@H]3C[C@H](COS(N)(=O)=O)[C@@H](O)C3)c2)NCCc2ccccc21.C[C@]1(c2csc(C(=O)c3cncnc3N[C@@H]3C[C@H](COS(N)(=O)=O)[C@@H](O)C3)c2)NCCc2ccccc21` (mixture of isomers) [I-318, [(1R,2S,4R)-2-hydroxy-4-{[5-({4-[(1R)-1-methyl-1,2,3,4-tetrahydroisoquinolin-1-yl]-2-thienyl}carbonyl)pyrimidin-4-yl]amino}cyclopentyl]methyl sulfamate and [(1R,2S,4R)-2-hydroxy-4-{[5-({4-[(1S)-1-methyl-1,2,3,4-tetrahydroisoquinolin-1-yl]-2-thienyl}carbonyl)pyrimidin-4-yl]amino}cyclopentyl]methyl sulfamate], for which the “Percent Inhibition” value came out at 95% and the IC50 was less than 10 nM.

With `NS(=O)(=O)OC[C@H]1C[C@@H](Nc2ncncc2C(=O)c2cc([C@@H]3NCCCc4ccccc43)c(Cl)s2)C[C@@H]1O` (mixture of isomers) [I-319, [(1R,2S,4R)-4-{[5-({5-chloro-4-[(1R)-2,3,4,5-tetrahydro-1H-2-benzazepin-1-yl]-2-thienyl}carbonyl)pyrimidin-4-yl]amino}-2-hydroxycyclopentyl]methyl sulfamate and [(1R,2S,4R)-4-{[5-({5-chloro-4-[(1S)-2,3,4,5-tetrahydro-1H-2-benzazepin-1-yl]-2-thienyl}carbonyl)pyrimidin-4-yl]amino}-2-hydroxycyclopentyl]methyl sulfamate], the “Percent Inhibition” value is 94% and the IC50 is less than 10 nM.

With `NS(=O)(=O)OC[C@H]1C[C@@H](Nc2ncncc2C(=O)c2cc([C@@H]3SCCc4ccc(Cl)cc43)cs2)C[C@@H]1O.NS(=O)(=O)OC[C@H]1C[C@@H](Nc2ncncc2C(=O)c2cc([C@H]3SCCc4ccc(Cl)cc43)cs2)C[C@@H]1O` (mixture of isomers) [I-320, [(1R,2S,4R)-4-{[5-({4-[(1R)-7-chloro-3,4-dihydro-1H-isothiochromen-1-yl]-2-thienyl}carbonyl)pyrimidin-4-yl]amino}-2-hydroxycyclopentyl]methyl sulfamate and [(1R,2S,4R)-4-{[5-({4-[(1S)-7-chloro-3,4-dihydro-1H-isothiochromen-1-yl]-2-thienyl}carbonyl)pyrimidin-4-yl]amino}-2-hydroxycyclopentyl]methyl sulfamate], the “Percent Inhibition” value is 92% and the IC50 fell in the range of 10 to 100 nM.

`C[C@@]1(c2csc(C(=O)c3cncnc3N[C@@H]3C[C@H](COS(N)(=O)=O)[C@@H](O)C3)c2)NCCc2ccc(Cl)cc21` (mixture of isomers) [I-321, [(1R,2S,4R)-4-{[5-({4-[(1R)-7-chloro-1-methyl-1,2,3,4-tetrahydroisoquinolin-1-yl]-2-thienyl}carbonyl)pyrimidin-4-yl]amino}-2-hydroxycyclopentyl]methyl sulfamate and [(1R,2S,4R)-4-{[5-({4-[(1S)-7-chloro-1-methyl-1,2,3,4-tetrahydroisoquinolin-1-yl]-2-thienyl}carbonyl)pyrimidin-4-yl]amino}-2-hydroxycyclopentyl]methyl sulfamate]: the “Percent Inhibition” value came out at 94% and the IC50 was less than 10 nM.

Consider `CN1Cc2cc(Cl)ccc2[C@@H]1c1csc(C(=O)c2cncnc2N[C@@H]2C[C@H](COS(N)(=O)=O)[C@@H](O)C2)c1` (mixture of isomers) [I-322, [(1R,2S,4R)-4-{[5-({4-[(1R)-5-chloro-2-methyl-2,3-dihydro-1H-isoindol-1-yl]-2-thienyl}carbonyl)pyrimidin-4-yl]amino}-2-hydroxycyclopentyl]methyl sulfamate and [(1R,2S,4R)-4-{[5-({4-[(1S)-5-chloro-2-methyl-2,3-dihydro-1H-isoindol-1-yl]-2-thienyl}carbonyl)pyrimidin-4-yl]amino}-2-hydroxycyclopentyl]methyl sulfamate], for which the “Percent Inhibition” value is listed as 92% and the IC50 lay within 10 to 100 nM.

With `NS(=O)(=O)OC[C@H]1C[C@@H](Nc2ncncc2C(=O)c2cc([C@@H]3OCCc4cnc(Cl)cc43)c(Cl)s2)C[C@@H]1O` (mixture of isomers) [I-323, [(1R,2S,4R)-4-{[5-({5-chloro-4-[(1R)-7-chloro-3,4-dihydro-1H-pyrano[4,3-c]pyridin-1-yl]-2-thienyl}carbonyl)pyrimidin-4-yl]amino}-2-hydroxycyclopentyl]methyl sulfamate and [(1R,2S,4R)-4-{[5-({5-chloro-4-[(1S)-7-chloro-3,4-dihydro-1H-pyrano[4,3-c]pyridin-1-yl]-2-thienyl}carbonyl)pyrimidin-4-yl]amino}-2-hydroxycyclopentyl]methyl sulfamate], the “Percent Inhibition” value was 90% and the IC50 lay in the range of 10 to 100 nM.

As to `N#Cc1sc(C(=O)c2cncnc2N[C@@H]2C[C@H](COS(N)(=O)=O)[C@@H](O)C2)cc1[C@@H]1OCCc2ccccc21` (mixture of isomers) [I-324, [(1R,2S,4R)-4-{[5-({5-cyano-4-[(1R)-3,4-dihydro-1H-isochromen-1-yl]-2-thienyl}carbonyl)pyrimidin-4-yl]amino}-2-hydroxycyclopentyl]methyl sulfamate and [(1R,2S,4R)-4-{[5-({5-cyano-4-[(1S)-3,4-dihydro-1H-isochromen-1-yl]-2-thienyl}carbonyl)pyrimidin-4-yl]amino}-2-hydroxycyclopentyl]methyl sulfamate], the “Percent Inhibition” value was 91% and the IC50 lay within 10 to 100 nM.

As to `NS(=O)(=O)OC[C@H]1C[C@@H](Nc2ncncc2C(=O)c2ccc([C@@H]3OCCc4c(Cl)cccc43)s2)C[C@@H]1O` (mixture of isomers) [I-325, [(1R,2S,4R)-4-{[5-({5-[(1R)-5-chloro-3,4-dihydro-1H-isochromen-1-yl]-2-thienyl}carbonyl)pyrimidin-4-yl]amino}-2-hydroxycyclopentyl]methyl sulfamate and [(1R,2S,4R)-4-{[5-({5-[(1S)-5-chloro-3,4-dihydro-1H-isochromen-1-yl]-2-thienyl}carbonyl)pyrimidin-4-yl]amino}-2-hydroxycyclopentyl]methyl sulfamate], the “Percent Inhibition” value was found to be 60% and the IC50 was in the range of 10 to 100 nM.

As to `NS(=O)(=O)OC[C@H]1C[C@@H](Nc2ncncc2C(=O)c2cc([C@@H]3OC(=O)c4ccc(Cl)cc43)c(Cl)s2)C[C@@H]1O` (mixture of isomers) [I-327, [(1R,2S,4R)-4-{[5-({5-chloro-4-[(1R)-6-chloro-3-oxo-1,3-dihydro-2-benzofuran-1-yl]-2-thienyl}carbonyl)pyrimidin-4-yl]amino}-2-hydroxycyclopentyl]methyl sulfamate and [(1R,2S,4R)-4-{[5-({5-chloro-4-[(1S)-6-chloro-3-oxo-1,3-dihydro-2-benzofuran-1-yl]-2-thienyl}carbonyl)pyrimidin-4-yl]amino}-2-hydroxycyclopentyl]methyl sulfamate], the “Percent Inhibition” value turned out to be 51% and the IC50 lay in the range of 100 to 1000 nM.

In general, IC50 refers to the midpoint of a concentration-inhibition curve.
